The values below come from ChEMBL document CHEMBL1201862, “PubChem BioAssay data set” (2004).

Among the test systems are 786-0; A498; A549; BT-549; DU-145; HL-60; Hs-578T; MDA-MB-231; NCI-H23; NCI-H460; RPMI-8226; SF-268; SF-295; SK-MEL-28; SK-MEL-2; SNB-19; SR; U-251; CCRF-CEM; MDA-N.
Holding throughout (experiment): NCI-60 cell line screen, 48 h

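96-well plates; 48 h exposure; 5 concentrations. Endpoints by linear interpolation between flanking doses. Not reached: highest tested concentration assigned. GI50: concentration for 50% inhibition of growth.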 The source made the active and inactive calls. Cut-off read from the data, not from the text of the source: active = GI50 up to about 1.1 µM and inactive = higher. Some results are limits rather than exact numbers.

`Cc1ccc(S(=O)(=O)NC2=NS(=O)(=O)c3cc(C)c(Cl)cc3S2)cc1`: the GI50 in the assay with 786-0, in the assay with A498, in the assay with A549, in the assay on BT-549, with DU-145 and with HL-60 was > 100 µM (inactive) in each case. Moreover, the GI50 with Hs-578T, in the assay on MDA-MB-231, in the assay with NCI-H23, in the assay on NCI-H460, in the assay on RPMI-8226 and in the assay with SF-268 was > 100 µM (inactive) each time. Moreover, the GI50 in the assay with SF-295 was 70.5 µM (inactive); with SK-MEL-28, > 100 µM (inactive); in the assay with SK-MEL-2, > 100 µM (inactive); in the assay with SNB-19, 75 µM (inactive); in the assay on SR, 63.4 µM (inactive); in the assay with U-251 it was > 100 µM (inactive).

On to `CC1=NN(c2nc(N)nc(/C(C#N)=C/c3ccncc3)n2)C(C)(C)C1`, for which the GI50 in the assay with 786-0 was > 100 µM (inactive); in the assay on A498 it was 60.3 µM (inactive); in the assay on BT-549 it was > 100 µM (inactive); with CCRF-CEM, 49.3 µM (inactive); in the assay with DU-145 it was 47.4 µM (inactive); in the assay with HL-60 it was 52.1 µM (inactive). The GI50 in the assay on Hs-578T, in the assay on MDA-MB-231, in the assay on NCI-H23, in the assay on NCI-H460, in the assay on RPMI-8226 and in the assay with SF-268 was > 100 µM (inactive) throughout. The GI50 was > 100 µM (inactive) with SF-295; > 100 µM (inactive) in the assay on SK-MEL-28; > 100 µM (inactive) with SK-MEL-2; > 100 µM (inactive) in the assay with SNB-19; 74.6 µM (inactive) in the assay with SR; > 100 µM (inactive) in the assay with U-251.

For the compound `CCOC(=O)Nc1cc2c(c(N)n1)N=C(c1ccc(OC)cc1)CN2`, the GI50 was 0.00363 µM (active) in the assay with 786-0; 0.282 µM (active) in the assay with A498; 0.00258 µM (active) in the assay on A549; < 0.01 µM (active) in the assay with BT-549; 0.0016 µM (active) with CCRF-CEM; 0.000407 µM (active) with DU-145. Also, the GI50 was 0.0015 µM (active) with HL-60; 0.000494 µM (active) in the assay on Hs-578T; < 0.0001 µM (active) with MDA-N; 0.0692 µM (active) in the assay on NCI-H23; 0.00226 µM (active) in the assay on NCI-H460; < 0.01 µM (active) in the assay with RPMI-8226. The GI50 was 0.00119 µM (active) with SF-268; 0.000269 µM (active) in the assay with SF-295; 0.0057 µM (active) in the assay on SK-MEL-28; < 0.01 µM (active) in the assay with SK-MEL-2; 0.000349 µM (active) in the assay with SNB-19; < 0.0001 µM (active) with SR. Further, the GI50 with U-251 is < 0.0001 µM (active).

Take `Nc1sc2c(c1C(=O)c1ccc(Cl)c(Cl)c1)CCCC2`: the GI50 was 68.7 µM (inactive) with 786-0; 51.9 µM (inactive) in the assay on A549; 20.3 µM (inactive) in the assay on BT-549; 26.4 µM (inactive) in the assay with CCRF-CEM; > 100 µM (inactive) with DU-145; 22.6 µM (inactive) with HL-60. Moreover, the GI50 in the assay on Hs-578T is 70.8 µM (inactive); in the assay with MDA-MB-231 it was > 100 µM (inactive); with NCI-H23, 45.3 µM (inactive); in the assay with NCI-H460, 40.1 µM (inactive); with RPMI-8226, 17.8 µM (inactive); in the assay on SF-268, 45.8 µM (inactive). Also, the GI50 in the assay on SF-295 was 37.2 µM (inactive); with SK-MEL-28 it was > 100 µM (inactive); in the assay with SK-MEL-2, 15 µM (inactive); with SNB-19 it was 64.1 µM (inactive); with SR it was 27.8 µM (inactive); in the assay with U-251, 45 µM (inactive).

Consider `N[C@@H](CCC(=O)NC(Cc1ccccc1)C(=O)NCP(=O)(O)O)C(=O)O` (some centres not stated), for which the GI50 with 786-0 is > 100 µM (inactive); in the assay on A498, > 100 µM (inactive); in the assay on A549 it was > 100 µM (inactive); in the assay on BT-549 it was 61.8 µM (inactive); in the assay on HL-60 it was > 100 µM (inactive); with Hs-578T, > 100 µM (inactive). For the same compound, the GI50 was > 100 µM (inactive) in the assay on MDA-MB-231; > 100 µM (inactive) in the assay with MDA-N; > 100 µM (inactive) with NCI-H23; > 100 µM (inactive) with NCI-H460; > 100 µM (inactive) in the assay with RPMI-8226; 0.513 µM (active) with SF-295. The GI50 with SK-MEL-28, with SK-MEL-2, in the assay with SNB-19, in the assay on SR and in the assay on U-251 was > 100 µM (inactive) in each case.

In the case of `COc1ccc(O[C@H](CO)C[C@@H]2COC(C)(C)O2)cc1`, the GI50 in the assay with 786-0, with A498, with A549, in the assay with BT-549, with CCRF-CEM and in the assay on DU-145 was > 100 µM (inactive) in each case. Further, the GI50 with MDA-MB-231, in the assay with MDA-N, with NCI-H23, in the assay on NCI-H460, in the assay on RPMI-8226 and in the assay with SF-268 was > 100 µM (inactive) throughout. For the same compound, the GI50 in the assay with SF-295, in the assay on SK-MEL-28, in the assay on SK-MEL-2, with SNB-19, with SR and in the assay with U-251 was > 100 µM (inactive) throughout.

Consider `COc1ccc(-c2c(C#N)c(-c3ccccc3)n(NS(=O)(=O)c3ccccc3)c(=O)c2C#N)cc1`, for which the GI50 is > 100 µM (inactive) with 786-0; > 100 µM (inactive) with A498; > 100 µM (inactive) in the assay on A549; > 100 µM (inactive) with BT-549; 36.9 µM (inactive) in the assay with CCRF-CEM; 60.3 µM (inactive) in the assay on HL-60. In addition, the GI50 in the assay with Hs-578T was 41.6 µM (inactive); in the assay on MDA-MB-231, > 100 µM (inactive); with MDA-N it was > 100 µM (inactive); with NCI-H460 it was > 100 µM (inactive); with RPMI-8226, 29.2 µM (inactive); in the assay on SF-268, 97.3 µM (inactive). The GI50 is > 100 µM (inactive) with SF-295; > 100 µM (inactive) in the assay on SK-MEL-28; 94.6 µM (inactive) in the assay on SK-MEL-2; 92.7 µM (inactive) in the assay on SNB-19; 71.8 µM (inactive) in the assay on U-251.

`O=C(Nc1sccc1S(=O)(=O)c1ccc(Cl)cc1)c1ccc(Cl)cc1Cl`: the GI50 is > 100 µM (inactive) in the assay on 786-0; > 100 µM (inactive) in the assay with A498; > 95.7 µM (inactive) in the assay with A549; > 100 µM (inactive) with BT-549; > 100 µM (inactive) in the assay with CCRF-CEM; > 100 µM (inactive) in the assay on DU-145. Besides, the GI50 was > 100 µM (inactive) in the assay with HL-60; > 100 µM (inactive) with Hs-578T; > 100 µM (inactive) in the assay on MDA-MB-231; > 81.3 µM (inactive) with NCI-H23; > 95.7 µM (inactive) in the assay with NCI-H460; 10.7 µM (inactive) in the assay on RPMI-8226. Also, the GI50 in the assay on SF-268 was > 100 µM (inactive); in the assay with SF-295, 37.8 µM (inactive); in the assay with SK-MEL-28 it was > 100 µM (inactive); in the assay with SK-MEL-2, > 100 µM (inactive); in the assay with SNB-19 it was > 100 µM (inactive); with SR it was 12.1 µM (inactive). In addition, the GI50 with U-251 is > 78.7 µM (inactive).

As for `c1ccc(C[P+]2(c3ccccc3)c3ccccc3-c3ccccc32)cc1`, the GI50 in the assay with 786-0, in the assay on A549, in the assay with BT-549, with CCRF-CEM, in the assay on DU-145 and in the assay on HL-60 was > 100 µM (inactive) each time. The GI50 in the assay on Hs-578T, with MDA-MB-231, in the assay on MDA-N, in the assay on NCI-H23, in the assay on RPMI-8226 and in the assay on SF-268 was > 100 µM (inactive) in each case. Also, the GI50 with SF-295, in the assay on SK-MEL-28 and with SNB-19 was > 100 µM (inactive) each time.

`NC(=O)C(=Cn1c(=S)[nH]c2ccc([N+](=O)[O-])cc21)C(N)=O`: the GI50 in the assay on 786-0, in the assay on A498, with A549, in the assay with BT-549, in the assay with DU-145 and in the assay on HL-60 was > 100 µM (inactive) in each case. Also, the GI50 with MDA-MB-231, in the assay on MDA-N, in the assay on NCI-H23, in the assay with NCI-H460, in the assay with SF-268 and with SF-295 was > 100 µM (inactive) in each case. Moreover, the GI50 in the assay with SK-MEL-28, in the assay with SK-MEL-2, in the assay with SNB-19 and in the assay with U-251 was > 100 µM (inactive) throughout.

In the case of `CCC(=O)Nc1ccc(NC(C#N)c2cccc(Oc3ccccc3)c2)cc1` (configuration not stated), the GI50 in the assay with 786-0 was 35.5 µM (inactive); in the assay on A498 it was > 100 µM (inactive); in the assay with A549, 62.5 µM (inactive); in the assay on BT-549, 57.7 µM (inactive); in the assay with CCRF-CEM, 32.1 µM (inactive); in the assay on DU-145, 48.3 µM (inactive). The GI50 with HL-60 is 13.5 µM (inactive); in the assay with Hs-578T, 67.3 µM (inactive); in the assay on MDA-N it was 34.4 µM (inactive); in the assay with NCI-H23, 45.2 µM (inactive); in the assay on RPMI-8226 it was 23.1 µM (inactive); with SF-268, 33.6 µM (inactive). Also, the GI50 is 45.7 µM (inactive) in the assay with SF-295; 53.3 µM (inactive) in the assay on SK-MEL-28; 35 µM (inactive) in the assay with SK-MEL-2; > 100 µM (inactive) in the assay with SNB-19; 18.2 µM (inactive) in the assay on SR.
